This assay addresses T1, TcLAR (Theobroma cacao, UniProt D3XFG4).
T1 construct: gene LAR; full-length ORF (361 residues, 1,083 bp) in pET-21a, C-terminal 6xHis tag kept, E. coli Rosetta (DE3), purified by Magne-His
In words: HPLC-UV and radioactivity detection of catechin product. The assay is classed as biochemical. The following applies: labelled compound (3H); 0.4 mM substrate, 0.5 mM NADPH, 100 mM potassium phosphate pH 7.0, 4 mM DTT, 10% glycerol, 30 C, 1 h.

T1 sequence (D3XFG4 entry or part of it): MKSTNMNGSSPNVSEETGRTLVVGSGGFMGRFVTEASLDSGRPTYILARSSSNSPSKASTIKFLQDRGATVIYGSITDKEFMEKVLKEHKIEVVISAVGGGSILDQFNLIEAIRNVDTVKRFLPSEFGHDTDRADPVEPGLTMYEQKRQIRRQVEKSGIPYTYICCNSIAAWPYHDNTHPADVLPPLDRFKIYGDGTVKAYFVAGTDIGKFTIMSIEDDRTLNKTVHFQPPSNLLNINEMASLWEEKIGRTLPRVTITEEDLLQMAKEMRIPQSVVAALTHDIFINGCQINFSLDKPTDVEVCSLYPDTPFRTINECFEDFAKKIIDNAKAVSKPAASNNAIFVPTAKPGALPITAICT

In the case of `Oc1cc(O)c2c(c1)O[C@H](c1ccc(O)c(O)c1)[C@@H](O)[C@H]2O` [leucocyanidin], the “HPLC-UV and radioactivity detection of catechin product” value was “detected when TcLAR protein was incubated with ^3H -labeled leucocyanidin”.

These data come from publication PMC4233638, “Proanthocyanidin synthesis in Theobroma cacao: genes encoding anthocyanidin synthase, anthocyanidin reductase, and leucoanthocyanidin reductase” (BMC Plant Biology, 2013).
